# Assay results reported in the supplement of paper PMC10307832.
# Assays:
# Assay in all cases: relative viability (nuclei count vs DMSO), 5 days (fraction); higher = more cells survive
# Vismodegib + Bortezomib = compound: CS(=O)(=O)c1ccc(C(=O)Nc2ccc(Cl)c(-c3ccccn3)c2)c(Cl)c1 [Vismodegib] + CC(C)C[C@H](NC(=O)[C@H](Cc1ccccc1)NC(=O)c1cnccn1)B(O)O [Bortezomib] (partner 0.002 µM)
# In short: (§1)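 Five library-drug doses in √10 steps were combined with a fixed anchor-drug dose, or a single drug was given alone, by pin tool to lung cancer cell lines in 1536-well plates the day after seeding. Nuclei were stained and counted after 5 days. Relative viability is the nuclei count in treated wells over that in vehicle wells, taken as the median of duplicate plates.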
# VE-821 + Vorinostat = compound: CS(=O)(=O)c1ccc(-c2cnc(N)c(C(=O)Nc3ccccc3)n2)cc1 [VE-821] + O=C(CCCCCCC(=O)Nc1ccccc1)NO [Vorinostat] (partner 1 µM)
# In short: as §1
# VE-821 + AZD7762 = compound: CS(=O)(=O)c1ccc(-c2cnc(N)c(C(=O)Nc3ccccc3)n2)cc1 [VE-821] + NC(=O)Nc1cc(-c2cccc(F)c2)sc1C(=O)N[C@H]1CCCNC1 [AZD7762] (partner 0.2 µM)
# In short: as §1
# Vismodegib + Alpelisib = compound: CS(=O)(=O)c1ccc(C(=O)Nc2ccc(Cl)c(-c3ccccn3)c2)c(Cl)c1 [Vismodegib] + Cc1nc(NC(=O)N2CCC[C@H]2C(N)=O)sc1-c1ccnc(C(C)(C)C(F)(F)F)c1 [Alpelisib] (partner 2 µM)
# In short: as §1
Cell Line,relative viability (Vismodegib + Bortezomib; first compound 0.08 µM),relative viability (Vismodegib + Bortezomib; first compound 0.253 µM),relative viability (Vismodegib + Bortezomib; first compound 0.8 µM),relative viability (Vismodegib + Bortezomib; first compound 2.53 µM),relative viability (Vismodegib + Bortezomib; first compound 8 µM),relative viability (VE-821 + Vorinostat; first compound 0.08 µM),relative viability (VE-821 + Vorinostat; first compound 0.253 µM),relative viability (VE-821 + Vorinostat; first compound 0.8 µM),relative viability (VE-821 + Vorinostat; first compound 2.53 µM),relative viability (VE-821 + Vorinostat; first compound 8 µM),relative viability (VE-821 + AZD7762; first compound 0.08 µM),relative viability (VE-821 + AZD7762; first compound 0.253 µM),relative viability (VE-821 + AZD7762; first compound 0.8 µM),relative viability (VE-821 + AZD7762; first compound 2.53 µM),relative viability (VE-821 + AZD7762; first compound 8 µM),relative viability (Vismodegib + Alpelisib; first compound 0.08 µM),relative viability (Vismodegib + Alpelisib; first compound 0.253 µM),relative viability (Vismodegib + Alpelisib; first compound 0.8 µM),relative viability (Vismodegib + Alpelisib; first compound 2.53 µM),relative viability (Vismodegib + Alpelisib; first compound 8 µM)
201T,1.13,1.07,1.09,1.09,1.09,0.991,0.947,0.992,1.01,0.752,0.67,0.578,0.585,0.648,0.46,1.03,0.996,0.994,1.07,0.984
A549,–,–,–,–,–,–,–,–,–,–,–,–,–,–,–,0.658,0.673,0.73,0.734,0.69
A-427,0.991,0.945,0.856,0.968,1.09,0.872,0.795,0.83,0.806,0.51,0.767,0.599,0.417,0.362,0.327,1.02,1.04,0.965,1.09,1.1
ABC-1,0.332,0.244,0.331,0.299,0.324,1.32,1.06,1.11,1.26,1.01,0.86,0.767,0.94,0.714,0.628,0.994,1.13,1.08,0.83,0.949
BEN,0.574,0.787,0.819,0.846,0.885,0.557,0.597,0.529,0.587,0.594,0.651,0.62,0.675,0.505,0.396,1.03,0.988,0.863,0.984,1.02
CAL-12T,–,0.882,0.91,0.935,0.999,0.931,0.762,0.826,0.833,0.686,0.568,0.514,0.512,0.352,0.239,1.12,1.02,1.37,1.2,1.3
COR-L23,1,0.938,0.983,0.916,1.09,0.418,0.561,0.36,0.373,0.157,–,–,–,–,–,0.77,0.672,0.689,0.756,0.819
COR-L 105,0.765,0.907,0.778,0.753,0.665,0.865,0.883,0.638,0.718,0.56,–,–,–,–,–,0.832,0.882,0.847,0.839,0.868
Calu-6,0.969,1.03,1.02,1.05,0.987,–,–,–,–,–,–,–,–,–,–,0.97,0.976,0.901,1.09,0.979
ChaGo-K-1,0.971,0.957,0.845,0.744,1.04,0.769,0.747,0.734,0.803,0.682,0.884,0.729,0.866,0.747,0.48,–,–,–,–,–
EBC-1,0.481,0.564,0.567,0.559,0.67,–,–,–,–,–,–,–,–,–,–,0.838,0.891,0.876,0.789,0.891
EKVX,1.1,1.09,1.1,1.06,1.03,0.961,0.665,0.707,0.81,0.452,0.754,0.638,0.696,0.744,0.424,0.946,0.974,0.907,0.871,0.875
EMC-BAC-2,1.08,1.03,1.05,1.11,1.05,0.495,0.423,0.431,0.416,0.338,1.15,1.02,1.12,1.19,0.587,0.716,0.763,0.819,0.732,0.754
IA-LM,0.892,0.825,0.867,0.754,0.795,0.951,0.976,0.941,1.26,0.903,–,–,–,–,–,0.778,0.728,0.966,0.582,1.04
LK-2,–,–,–,–,–,0.335,0.253,0.416,0.408,0.397,0.477,0.392,0.282,0.415,0.252,1.24,1.04,0.805,0.952,1.22
NCI-H358,–,–,–,–,–,0.737,0.694,0.712,0.608,0.329,0.627,0.603,0.447,0.41,0.293,0.75,0.916,0.695,0.868,1.04
